Patent US6706664B1, “Benzoxazole compounds, process for the preparation thereof and herbicides” (UBE Industries, Ltd., priority 1999, dated 2004)

Experiments:
Design in all cases: key: 0: normal development; 1: Less damaged; 2: Slightly damaged; 3: Moderately damaged; 4: Severely damaged; 5: All killed
barnyardgrass = assay: Herbicidal test for paddy field; type: in vivo, Echinochloa crusgalli; details: paddy field pot, 500 g/ha dropwise at 1.5 leaf stage of barnyardgrass, 3 weeks, rank vs non-treated
Method in brief: (§1)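 Ube alluvial soil in pots flooded to 3 cm water depth, sown with seeds or tubers. Wettable powder diluted in water with 0.05% surfactant was dripped onto the water at 500 g/ha when barnyardgrass reached the 1.5-leaf stage. After 3 weeks in a glasshouse at an average of 25° C, damage was scored 0 (normal) to 5 (all killed) against untreated pots.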

monochoria = assay: Herbicidal test for paddy field; type: in vivo, Monochoria vaginalis; details: paddy field pot, 500 g/ha dropwise at 1.5 leaf stage of barnyardgrass, 3 weeks, rank vs non-treated
Method in brief: as §1

corn = assay: Soil treatment test for upland field; type: in vivo; details: 500 g/ha, glass house 25° C., 3 weeks
Method in brief: (§2)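 Pre-emergence test: seeds sown in Ube alluvial soil in Wagner pots, soil surface sprayed with wettable powder in water with 0.05% surfactant at 500 g/ha. Plants kept in a glasshouse at average 25 °C for 3 weeks, then damage scored 0 (normal) to 5 (all killed).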

cotton = assay: Soil treatment test for upland field; type: in vivo; details: 500 g/ha, glass house 25° C., 3 weeks
Method in brief: as §2

solgum = assay: Soil treatment test for upland field; type: in vivo; details: 500 g/ha, glass house 25° C., 3 weeks
Method in brief: as §2

soybean = assay: Soil treatment test for upland field; type: in vivo; details: 500 g/ha, glass house 25° C., 3 weeks
Method in brief: as §2

sugar beat = assay: Soil treatment test for upland field; type: in vivo; details: 500 g/ha, glass house 25° C., 3 weeks
Method in brief: as §2

wheat = assay: Soil treatment test for upland field; type: in vivo; details: 500 g/ha, glass house 25° C., 3 weeks
Method in brief: as §2

green foxtail = assay: Soil treatment test for upland field; type: in vivo, Setaria viridis; details: 500 g/ha, glass house 25° C., 3 weeks
Method in brief: as §2

blackgrass [1] = assay: Soil treatment test for upland field; type: in vivo, Alopecurus aegualis; details: 500 g/ha, glass house 25° C., 3 weeks
Method in brief: as §2

annual bluegrass [2] = assay: Soil treatment test for upland field; type: in vivo, Poa annua; details: 500 g/ha, glass house 25° C., 3 weeks
Method in brief: as §2

common lambsquartes [3] = assay: Soil treatment test for upland field; type: in vivo, Chenopodium album; details: 500 g/ha, glass house 25° C., 3 weeks
Method in brief: as §2

velvetleaf [4] = assay: Soil treatment test for upland field; type: in vivo, Abutilon theophrasti; details: 500 g/ha, glass house 25° C., 3 weeks
Method in brief: as §2

blackgrass [5] = assay: Foliar spread test for upland field; type: in vivo, Alopecurus aegualis; details: foliar spray 500 ppm, 3 weeks, rank vs non-treated
Method in brief: (§3)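 Post-emergence foliar spray, 500 ppm (wettable powder in water + 0.5% surfactant), on ~2-week-old plants grown in volcanic ash soil; glasshouse, avg 25° C, 3 wk; visual damage score 0–5.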

annual bluegrass [6] = assay: Foliar spread test for upland field; type: in vivo, Poa annua; details: foliar spray 500 ppm, 3 weeks, rank vs non-treated
Method in brief: as §3

common lambsquartes [7] = assay: Foliar spread test for upland field; type: in vivo, Chenopodium album; details: foliar spray 500 ppm, 3 weeks, rank vs non-treated
Method in brief: as §3

livid amaranth = assay: Foliar spread test for upland field; type: in vivo, Amaranthus lividus; details: foliar spray 500 ppm, 3 weeks, rank vs non-treated
Method in brief: as §3

velvetleaf [8] = assay: Foliar spread test for upland field; type: in vivo, Abutilon theophrasti; details: foliar spray 500 ppm, 3 weeks, rank vs non-treated
Method in brief: as §3

morning glory = assay: Foliar spread test for upland field; type: in vivo, Ipomoea spps.; details: foliar spray 500 ppm, 3 weeks, rank vs non-treated
Method in brief: as §3

Structure (SMILES)	Effect Barnyardgrass (barnyardgrass)	Effect Monochoria (monochoria)	Effects Corn (corn)	Effects Cotton (cotton)	Effects Solgum (solgum)	Effects Soybean (soybean)	Effects Sugar beat (sugar beat)	Effects Wheat (wheat)	Effects Green foxtail (green foxtail)	Effects Blackgrass (blackgrass [1])	Effects Annual bluegrass (annual bluegrass [2])	Effects Common lambsquarters (common lambsquartes [3])	Effects Velvetleaf (velvetleaf [4])	Effects Blackgrass (blackgrass [5])	Effects Annual bluegrass (annual bluegrass [6])	Effects Common lambsquarters (common lambsquartes [7])	Effects Livid amaranth (livid amaranth)	Effects Velvetleaf (velvetleaf [8])	Effects Morning glory (morning glory)
CCC(Oc1cccc(C(F)(F)F)c1)c1nc2cc(C#N)ccc2o1 (stereo not drawn) [Compound 190]	5	5	2	5	2	0	5	2	5	3	5	4	3	3	4	4	5	4	3
CCC(Oc1cccc(C(F)(F)F)c1)c1nc2cc(C#N)c(C#N)cc2o1 (stereo not drawn) [Compound 315]	3	4	2	1	1	1	5	1	5	5	5	4	5	2	2	5	5	4	3
CCCC(Oc1ccc(F)c(C(F)(F)F)c1)c1nc2cc(C(F)(F)F)ccc2o1 (stereo not drawn) [Compound 199]	4	5	1	2	1	2	5	0	5	2	5	5	5	2	2	4	4	4	4
CCC(Oc1cccc(C(F)(F)F)c1)c1nc2cc(Cl)ccc2o1 (stereo not drawn) [Compound 140]	5	5	0	0	1	0	3	0	5	4	5	4	1	2	2	4	4	2	3
CCC(Oc1ccc(F)c(C(F)(F)F)c1)c1nc2cc([N+](=O)[O-])ccc2o1 (stereo not drawn) [Compound 177]	5	5	2	2	2	1	5	2	5	5	5	4	5	2	4	4	5	4	5
CCC(Oc1ccc(F)c(C(F)(F)F)c1)c1nc2cc(Cl)ccc2o1 (stereo not drawn) [Compound 139]	5	5	2	1	2	1	5	1	5	5	5	4	5	2	3	5	5	3	5
